From US7662607B2, “Chalaropsis lysozyme protein and its method of use in anti-bacterial applications” (New Century Pharmaceuticals, Inc., priority 2003, dated 2010) come the findings set out here.

The subject of one assay is Staphylococcus cell wall. The assay can be described thus: Lysozyme Ch activity, turbidimetric rate determination with Staphylococcus cell wall (absorbance at 600 nm). The format is biochemical. The conditions noted are these: 50 mM Sodium acetate Buffer, pH 4.8, 25° C. As for the experimental part: In one example, the Chalaropsis Lysozyme PEGylation was carried out using the steps as follows: (1) 15 mg of Chalaropsis Lysozyme and 1.05 g of Methoxypolyethylene glycol succinimidyl succinate (MPSS) was added into 0.1 M Sodium phosphate buffer to make final volume of 10 ml. (2) The mixture was allowed to shake on a rotator for 120 hours. The mixture was run on a SDS-PAGE to verify PEGylation (FIG. 1). (3) The mixture was concentrated with a YM-10 centriprep to a final volume of 1 ml. (4) The protein was loaded onto a XK16 column packed with Sephacryl S-300 resin. Fractions were collected every 2 min, i.e. 2 mls. (5) The following fractions are run on two gels (FIG. 2 and FIG. 3): • Gel1: MW, 28, 30, 35, 40, 45, 50, 55, 60, 65 • Gel2: MW, 70, 75, 80, 83, 85, 90, 95, 99, 105. (6) Based on the gel, it was decided that fractions around tube 55 was fully PEGylated, and thus fractions 53 to 57 were pooled and concentrated. (7) Activity was tested at 1 mg/ml for both native and PEGylated protein. […] PEGylation of Lysozyme Ch
Lysozyme Ch activity was measured with Staphylococcus cell wall in 50 mM Sodium acetate Buffer, pH 4.8 at 25° C. Absorbance at 600 nm is monitored for the turbidimetric rate determination on an Ultrospec 2000 spectrophotometer (Ref. 2).

Assay [1] deals with Micrococcus lysodeikticus cells. As to the kind of experiment: HEW Lysozyme activity, turbidimetric rate determination with Micrococcus lysodeikticus cells (absorbance at 450 nm). The format is biochemical. The conditions noted are these: 50 mM Potassium Phosphate Buffer, pH 6.24, 25° C. As for the experimental part: HEW Lysozyme activity was tested with Micrococcus lysodeikticus cells in 50 mM Potassium Phosphate Buffer, pH 6.24 at 25° C. Absorbance at 450 nm is monitored for the turbidimetric rate determination on an Ultrospec 2000 spectrophotometer (ref).

As to “HEW Lysozyme: HEW Lysozyme used as a control”, the “Activity against Staphylococcus cell wall” value in the assay on Staphylococcus cell wall is listed as “no activity”. In addition, the “Activity with Micrococcus lysodeikticus cells (FIG. 6)” value in assay [1] is on record as “reduces the absorbance in a non-linear way”.

For “PEGylated HEW Lysozyme: HEW Lysozyme PEGylated with MPSS as a control experiment, with or without inhibitors”, in assay [1], the “Activity with Micrococcus lysodeikticus cells (FIG. 6)” value is recorded as “lost its entire activity”.

B1: Lysozyme Ch: Lysozyme from fungus Chalaropsis species, N,O-diacetylmuramidase, corrected sequence SEQ ID NO:1 (protein, listed as Chalaropsis sp.)
chain: TVQGFDISSYQPSVNFAGAYSAGARFVIIKATEGTSYTNPSFSSQYTGATNAGFIRGGYHFAHPGETTGAAQADYFIAHGGGWSGDGITLPGMLDLESEGSNPACWGLSAASMVAWIKAFSDRYHAVTGRYPMLYTNPSWWSSCTGNSNAFVNTNPLVLARYASAPGTIPGGWPYQTIWQNSDAYAYGGDSNIFNGSADNLKKLATG
In the case of B1, the “Activity against Staphylococcus cell wall” value in the assay with Staphylococcus cell wall is reported as “excellent activity”.
